For data set [1], the system named is MDBK cells. As to the kind of experiment: Cytotoxicity assay (cell viability, crystal violet staining). The data set is classed as cell-based, Bos taurus. The procedure:
(§1) MDBK cells (Bos taurus kidney, ATCC CCL-22) were purchased from ATCC and grown in Dulbecso's modified Eagle medium (DMEM) supplemented with 10% fetal bovine serum and antibiotics under 5% CO2 at 37°C. For infections, cells were cultivated in DMEM supplemented with 2% Horse serum and antibiotics under 5% CO2 at 37°C.
(§2) Cell viability assays were performed on confluent cell cultures in 96 well plates (~15,000 cells per well). For each compound, cells were treated with serial dilutions of the compound in quadruplicates and incubated at 37°C for 3 days. Then, cell viability was measured using crystal violet staining. Briefly, cells were fixed with 10% formaldehyde, stained with crystal violet solution (20% Ethanol, 0.1% Crystal Violet), and after washing, the absorbance at 595 nm was recorded for each well in a spectrophotometer. Assays were conducted at least in duplicates, and the cytotoxic concentration 50 (CC50) was estimated by a nonlinear regression fitting of five data points as the compound concentration necessary to reduce cell viability by 50% compared to control non-treated cells.

Data set [2] deals with MDBK cells. Set-up: method as in Pascual et al. (2018). The settings on record: ref Pascual et al. (2018), cited from earlier work.
The next data set has as its system BVDV cell entry. The arrangement: method as in Pascual et al., 2018. The settings on record: previously shown; ref Pascual et al., 2018; cited from earlier work.
In data set [3] the test system is BVDV. The arrangement: method as in Pascual et al. (2018). The settings on record: MDBK cells infected with cpBVDV/Npro GFP; ref Pascual et al. (2018); cited from earlier work.
Data set [4] can be described thus: Cytotoxicity assay (cell viability, crystal violet staining). The note with it: cattle (Bos taurus), MDBK cells, 3 days at 37°C, mean and SD of at least two independent experiments. Format: cell-based, Bos taurus. The procedure: as §1, §2
Data set [5] concerns BVDV. The data set is described as follows: Reporter-based assay for antiviral activity (cpBVDV/Npro GFP, flow cytometry). The note with it: read-out: IC50 BVDV. The data set is classed as cell-based, Bovine viral diarrhea virus. Here is the method: Antiviral activity was evaluated in a reporter-based assay using a recombinant virus expressing GFP, cpBVDV/Npro GFP (Pascual et al., [2018]). MDBK cells were seeded onto 24 well plates, infected with cpBVDV/Npro GFP at a multiplicity of infection of 0.1 in the presence of increasing concentrations of compounds. At 48 h post-infection cells were thoroughly washed, lifted with trypsin 0.05% and fixed using 4% paraformaldehyde in PBS. The fluorescence signal was measured using a flow cytometer (CyFlow® Space, Partec) at a detection spectrum of 488 nm. Data were analyzed in the FlowJo 7.6.2 software package. The inhibitory concentrations 50 (IC50s) for the compounds tested in the assay were calculated from curves constructed by plotting the percentage of infected cells versus the concentration of compound as the compound concentration necessary to reduce the number of infected cells by 50% compared to control non-treated cells.
First, we assayed selected compounds for cytotoxicity in cultured cells. […] The remainder of the compounds were evaluated for antiviral activity in a reporter-based assay using a recombinant BVDV virus carrying GFP on its genome to infect MDBK cells (Pascual et al., [2018]). Expression of GFP induced by BVDV infection was measured 2 days after infection using flow cytometry. Inhibition of BVDV infection was assessed by comparing the number of GFP positive cells in non-treated control cells and in cells treated with increasing amounts of compound.
In general terms: A flow cytometer gives signals particle by particle.

Where [6] appears, read: MDBK cells (bovine kidney, ATCC CCL-22).
The mark [7] stands for this setting: Bovine viral diarrhea virus isolates and strains, MDBK, 48 h.

The values that follow come from publication PMC5879447, “Discovery of Novel Bovine Viral Diarrhea Inhibitors Using Structure-Based Virtual Screening on the Envelope Protein E2” (Frontiers in Chemistry, 2018).

Where two headings read alike, the source gives them in different places. Bounds are passed on as bounds.

The CC50 is the concentration that lowers cell viability or growth by half. In the case of “4-chloro-N-(isoxazol-5-yl)benzamide [Compound 15]”, in the data set with MDBK cells [1], the CC50 is greater than 50 µM.

The IC50 is the point on the concentration scale where inhibition reaches its midpoint. Turning to `OCCCc1nc2ccccc2[nH]1` [BI03], in the data set with MDBK cells [2], the “cytotoxicity at 50 μM” value is “no cytotoxicity was detected” and the CC50 is greater than 200 µM. Also, the “block of BVDV cell entry” value in the data set on BVDV cell entry is on record as “specifically block BVDV cell entry”. Further, the half-maximal inhibitory concentration (IC50) with BVDV [3] was 17.6 ± 6.4 µM.

In the case of `c1ccc(CN2CCN(c3cccc4[nH]cnc34)CC2)cc1` [Compound 1], the CC50 at 3 days in data set [4] (setting [6]) is greater than 50 µM.

As for `C1=C(c2nc3ccccc3o2)CCN1Cc1ncc[nH]1` [Compound 2], the CC50 at 3 days in data set [4] (setting [6]) was greater than 50 µM. Moreover, in the data set on BVDV [5] (setting [7]), the IC50 worked out at 44.3 ± 10.3 µM.

Regarding `NNC(=O)c1ccccc1NC(=O)c1ccccc1` [Compound 3], in data set [4], the CC50 at 3 days was greater than 50 µM.

`C[C@@H](Sc1nnc(-c2cccnc2)n1N)C(=O)Nc1cccc(C(F)(F)F)c1` [Compound 4]: the CC50 at 3 days in data set [4] (setting [6]) is greater than 50 µM. The “cytotoxicity at 50 μM” value in the data set on MDBK cells [1] (MDBK cells, 50 μM) is on record as “no cytotoxicity was detected”. The half-inhibitory concentration (IC50) in the data set on BVDV [5] (setting [7]) amounted to 30.1 ± 2.9 µM.

For `Cc1cccc(Cl)c1NC(=N)NC(=N)N` [Compound 5], in data set [4] (setting [6]), the CC50 at 3 days is greater than 50 µM.

`O=C(NNC(=O)c1cc2cc(OC(F)(F)F)ccc2[nH]1)c1cccc(C(F)(F)F)c1` [Compound 6] yielded a CC50 at 3 days in data set [4] (setting [6]) of 7.2 ± 1.3 µM. In addition, in the data set with MDBK cells [1] (MDBK cells, compound discarded from further analysis), the “cytotoxicity in cultured cells” value was “high toxicity”.

Turning to `O=C(NCc1ccc2c(c1)OCO2)Oc1ccccc1` [Compound 7], in data set [4], the CC50 at 3 days was greater than 50 µM.

`CCOC(=O)c1ccc2nc(NC(=O)c3cccc(Cl)c3)sc2c1` [Compound 8]: the CC50 at 3 days in data set [4] (setting [6]) is greater than 50 µM. Also, in the data set with MDBK cells [1] (MDBK cells, 50 μM), the “cytotoxicity at 50 μM” value is given as “no cytotoxicity was detected”. Besides, the concentration for half-maximal inhibition (IC50) with BVDV [5] (setting [7]) amounted to 20.2 ± 3.6 µM.

`CS/C(=N\S(=O)(=O)c1ccc(-n2nc(C(F)(F)F)cc2-c2cccs2)cc1)N1CCCC1` [Compound 9] gave a cytotoxic concentration (CC50) at 3 days in data set [4] (setting [6]) greater than 50 µM.

Compound `COc1ccccc1NC(=O)Cc1nnc(SCC(=O)Nc2cc(Cl)ccc2C)n1C` [Compound 10] displayed a CC50 at 3 days in data set [4] (setting [6]) greater than 50 µM.

`N=C(N)Nc1nc2ccccc2[nH]1` [Compound 12, 2-Guanidinobenzimidazole]: the CC50 at 3 days in data set [4] (setting [6]) is greater than 50 µM. Moreover, the IC50 in the data set on BVDV [5] (setting [7]) was determined as 44.4 ± 11.5 µM.

As for `O=C(OCCO)c1cccc2c1-c1ccccc1C2=O` [Compound 13], in data set [4] (setting [6]), the half-maximal cytotoxic concentration (CC50) at 3 days was determined as 61.5 ± 1.4 µM.

Regarding `Cc1cc(NC(=O)CCC(=O)O)no1` [Compound 14, 4-((5-methylisoxazol-3-yl)amino)-4-oxobutanoic acid], in data set [4] (setting [6]), the CC50 at 3 days was greater than 50 µM.

Consider `O=C(Nc1ccc(OC(F)(F)F)cc1)c1ccco1` [Compound 16, N-(4-(trifluoromethoxy)phenyl)furan-2-carboxamide], for which half-maximal cytotoxicity in data set [4] (setting [6]) (CC50 at 3 days) was put at 49.8 ± 1.5 µM.

For the compound `Cc1ccc(CNC(=N)NC(=N)N)cc1` [Compound 17], the CC50 at 3 days in data set [4] (setting [6]) was greater than 50 µM.

Take `COc1ccc(C(=O)Nc2cc(-c3ccccc3)sc2C(N)=O)cc1OC` [PTC12]: in the data set with MDBK cells [2], the “cytotoxicity at 50 μM” value is “no cytotoxicity was detected” and the CC50 is 89.5 ± 1.1 µM. Moreover, the “block of BVDV cell entry” value with BVDV cell entry is recorded as “specifically block BVDV cell entry”. In addition, the half-maximal inhibitory concentration (IC50) in the data set on BVDV [3] was 0.3 ± 0.1 µM.

As for “(E)-2-(4-(dimethylamino)benzylidene)-N-(4-(trifluoromethyl)phenyl)hydrazinecarbothioamide [Compound 11]”, in the data set with MDBK cells [1], the CC50 was greater than 50 µM and the “cytotoxicity at 50 μM” value is “no cytotoxicity was detected”. Moreover, in the data set on BVDV [5] (MDBK cells infected with cpBVDV/Npro GFP, MOI 0.1, 48 h post-infection, mean and SD of at least two independent experiments, NA = assayed but not active), the IC50 was found to be 23.9 ± 7.9 µM.
